One experiment deals with T1, acetylcholinesterase (Rattus norvegicus, UniProt P37136).
T1 construct: The acetylcholinesterase used in this test was obtained from rat's corpus striatum; from tissue; host or cells: rat corpus striatum
T1 sequence (P37136 32-614): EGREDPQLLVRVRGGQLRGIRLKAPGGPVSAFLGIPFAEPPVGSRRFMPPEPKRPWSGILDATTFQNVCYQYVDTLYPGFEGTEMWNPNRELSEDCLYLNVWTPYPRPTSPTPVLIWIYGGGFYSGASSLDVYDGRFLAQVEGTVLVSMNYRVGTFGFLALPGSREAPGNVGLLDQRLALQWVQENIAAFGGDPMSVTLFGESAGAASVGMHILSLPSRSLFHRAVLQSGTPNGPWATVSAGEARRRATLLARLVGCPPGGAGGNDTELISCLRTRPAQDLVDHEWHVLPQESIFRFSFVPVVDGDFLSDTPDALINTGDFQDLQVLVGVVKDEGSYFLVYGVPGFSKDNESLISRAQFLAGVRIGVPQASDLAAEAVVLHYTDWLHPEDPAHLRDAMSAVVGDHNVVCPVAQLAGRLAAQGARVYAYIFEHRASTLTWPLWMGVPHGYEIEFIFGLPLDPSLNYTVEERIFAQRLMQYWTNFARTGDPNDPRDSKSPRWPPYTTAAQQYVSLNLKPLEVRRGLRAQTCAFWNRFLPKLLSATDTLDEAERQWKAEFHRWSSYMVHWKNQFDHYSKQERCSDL
Nature of the experiment: Inhibition of acetylcholinesterase (enzyme assay). It is filed as biochemical. As to the method: The ability to inhibit acetylcholinesterase was determined by the method (enzyme assay) described in Clinica Chimica Acta, 115 (1981) 163-170. The acetylcholinesterase used in this test was obtained from rat's corpus striatum.

Experiment [1] has as its system deficit of memory induced by cycloheximide. Nature of the experiment: Passive avoidance test. Particulars: Dose 0.032 mg/kg i.p.; ddY strain male mice given cycloheximide 30 mg/kg S.C.; step-down latency 24 hours after training. It is filed as in vivo. The text has this:
6-Weeks old ddY strain male mice (20 per group) were used. The effect of the test compound on deficit of memory induced by cycloheximide (a protein synthesis inhibitor) in passive avoidance task was examined.
The apparatus consists of a grid floor enclosed by a transparent acryl glass wall each section of which was 30 cm². At the center of this grid a wooden platform of 4 x 4 x 4 cm was fixed. This apparatus was set in a wooden semisoundproof box of 35 x 35 x 90 cm fitted with a 15W tungsten lamp.
Each mouse in groups (A), (B) and (C) was placed on the platform.
When the mouse stepped down from the platform and placed all its paws on the grid floor, an intermittent electrical footshock (1Hz, 0.5 sec, 60V, DC) was delivered for 15 seconds through the grid floor. […]
24 Hours after the training, each mouse was placed again on the platform and the response latency to step down from the platform was measured to an extent of 300 seconds at the longest.
Results were recorded as the mean response latency of step down for each experimental group of mice. […]

The values that follow come from patent EP0371388A2, “Acridine derivatives” (FUJISAWA PHARMACEUTICAL CO., LTD., priority 1988, dated 1990).

Usually IC50 stands for the concentration that inhibits the measured activity by half. Low readings indicate higher potency, high ones lower potency.

`Cc1ccc2c(N)c3c(nc2c1)CC(C)(C)CC3O` (racemic) [(±)-9-Amino-1-hydroxy-3,3,6-trimethyl-1,2,3,4-tetrahydroacridine] displayed an IC50 against acetylcholinesterase of 870 nM.

For `CC1(C)CCc2c(nc3cc(Cl)ccc3c2N)C1` [9-Amino-6-chloro-3,3-dimethyl-1,2,3,4-tetrahydroacridine], the “Percentage of Recovery (%)” value in experiment [1] is 95%.
